# Test results: US20260083865A1, “PROSTATE SPECIFIC MEMBRANE ANTIGEN (PSMA) LIGANDS AND USE THEREOF” (priority 2022, published 2026)
# Like-named read-outs stand apart in the source and are kept apart here. Numbered stars: 1 amine (or outer) side, 2 acyl side, 3 side chain; on linkers, the order of the positions; unused ones are H or OH. Bridge positions count the residues as written; N and C are the ends. Square brackets hold non-standard residues; d marks the D form. Peptide text beside a SMILES is read from it. * marks the point of attachment. TtdsdLys(DOTA)NH2 = NC(=O)[C@@H](CCCCNC(=O)CN1CCN(CC(=O)O)CCN(CC(=O)O)CCN(CC(=O)O)CC1)NC(=O)CCC(=O)NCCCOCCOCCOCCCN*; X3 = O=C(O)CN1CCN(CC(=O)O)CCN(CC(=O)NCCCOCCOCCOCCCN*)CCN(CC(=O)O)CC1; DOTA = O=C(O)CN1CCN(CC(=O)O)CCN(CC(=O)*)CCN(CC(=O)O)CC1; Phe(4-Cl) = N[C@@H](Cc1ccc(Cl)cc1)C(=O)O; Ethylenediamine = C(CN[*:2])N[*:1]; X1 = O=C(CC1CCN([*:1])CC1)[*:2]; Cit = NC(=O)NCCC[C@H](N)C(=O)O; Suc = O=C(CCC(=O)[*:2])[*:1]; Tle = CC(C)(C)[C@H](N)C(=O)O; 4Amb = NCc1ccc(C(=O)O)cc1; Hexanoyl = CCCCCC(=O)*; Aib = CC(C)(N)C(=O)O
# What was measured:
# PC3-PIP tumor model = system: PC3-PIP tumor model; set-up: species or system mice; conditions: mouse, in vivo
# From the text: Radioactively labeled compounds can be detected by imaging methods such as SPECT and PET. Furthermore, the data acquired by such techniques can be confirmed by direct measurement of radioactivity contained in the individual organs prepared from an animal injected with a radioactively labeled compound of the disclosure. Thus, the biodistribution (the measurement of radioactivity in individual organs) of a radioactively labeled compound can be determined and analyzed. […] All animal experiments were conducted in compliance with the German animal protection laws. Male swiss or NMRI nude mice (6-8 weeks old, Janvier Labs, France) were inoculated with 5×10^6 PC3-PIP cells in the right shoulder. For selected compounds an additional model was used, here male NMRI nude mice (6-8 weeks old, Janvier Labs, France) were inoculated with 5×10^6 or/1×10^7 C4-2 cells in the right shoulder. When tumors reached an appropriate size, the mice received ˜30 MBq ^111In-labeled compounds of the disclosure (diluted to 100 μL with PBS) administered intravenously via the tail vein. Images were obtained on a NanoSPECT/computed tomography system (Mediso Medical Imaging Systems, Budapest, Hungary) using exemplarily the following acquisition and reconstruction parameters (Table 10). [table] Imaging data were saved as DICOM files and analysed using VivoQuant™ software (Invicro, Boston, USA). In brief, regions of interest (ROIs) were drawn based on computed tomography images for the relevant organs and tissue regions such as heart (estimate of blood pool, bps), kidney, and tumor. The resulting numeric data expressed as a percentage of injected dose per gram of tissue (% ID/g) are presented in FIGS. 3(a)-3(ii) for the PC3-PIP model and FIGS. 4(a)-4(r) for the C4-2 model. Bars show mean % ID/g values of two to three animals per time point. Error bars indicate the value range (minimum and maximum values).
# [1] = target: T1, PSMA-expressing C4-2 cells (Homo sapiens, UniProt Q04609); test: FACS binding assay (competition with 50 nM PSM-0183); conditions: read-out: pIC50 [C4-2] CAT (converted)
# T1 construct: PSMA-expressing C4-2 cells (ATCC, Cat. No. CRL-3314) were cultured in RPMI-1640; host or cells: C4-2 cells
# T1 sequence (Q04609 whole entry): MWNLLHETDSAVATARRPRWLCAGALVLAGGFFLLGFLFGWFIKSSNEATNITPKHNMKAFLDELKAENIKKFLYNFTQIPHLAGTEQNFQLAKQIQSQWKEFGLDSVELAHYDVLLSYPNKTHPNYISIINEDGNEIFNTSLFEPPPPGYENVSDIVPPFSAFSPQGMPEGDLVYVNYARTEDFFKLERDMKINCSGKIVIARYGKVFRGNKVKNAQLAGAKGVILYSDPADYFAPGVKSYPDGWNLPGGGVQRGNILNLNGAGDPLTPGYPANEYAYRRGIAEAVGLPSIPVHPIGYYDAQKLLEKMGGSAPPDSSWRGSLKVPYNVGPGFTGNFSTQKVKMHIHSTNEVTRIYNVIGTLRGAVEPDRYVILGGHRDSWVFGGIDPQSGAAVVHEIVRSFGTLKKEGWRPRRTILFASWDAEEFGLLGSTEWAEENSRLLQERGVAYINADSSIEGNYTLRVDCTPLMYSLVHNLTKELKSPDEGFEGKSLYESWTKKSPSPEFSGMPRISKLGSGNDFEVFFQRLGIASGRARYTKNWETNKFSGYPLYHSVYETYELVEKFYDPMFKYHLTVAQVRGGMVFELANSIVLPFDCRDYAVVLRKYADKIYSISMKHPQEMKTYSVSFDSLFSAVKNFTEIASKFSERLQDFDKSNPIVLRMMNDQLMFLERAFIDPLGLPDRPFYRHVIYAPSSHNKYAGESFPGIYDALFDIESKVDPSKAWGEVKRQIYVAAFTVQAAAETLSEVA
# Procedure, shortened: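 Competition format: fluorescent tracer PSM-0183 (50 nM) displaced from PSMA on C4-2 cells by a test compound titration over 1 h at 4 °C. Bound tracer was quantified as flow-cytometric AF488 median fluorescence after washing. Four-parameter logistic fits of MFI data gave IC50 and pIC50.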
# [2] = target: T2, Fc-fusion protein of human PSMA (hPSMA-Fc) (Homo sapiens, UniProt Q04609); test: Surface plasmon resonance assay (Biacore T200, single cycle kinetic); format: binding; conditions: hPSMA-Fc, 25° C., read-out: pKD CAT (converted)
# T2 construct: purchased Acro Biosystems PSA-H5264
# T2 sequence (Q04609 44-750 limits assumed): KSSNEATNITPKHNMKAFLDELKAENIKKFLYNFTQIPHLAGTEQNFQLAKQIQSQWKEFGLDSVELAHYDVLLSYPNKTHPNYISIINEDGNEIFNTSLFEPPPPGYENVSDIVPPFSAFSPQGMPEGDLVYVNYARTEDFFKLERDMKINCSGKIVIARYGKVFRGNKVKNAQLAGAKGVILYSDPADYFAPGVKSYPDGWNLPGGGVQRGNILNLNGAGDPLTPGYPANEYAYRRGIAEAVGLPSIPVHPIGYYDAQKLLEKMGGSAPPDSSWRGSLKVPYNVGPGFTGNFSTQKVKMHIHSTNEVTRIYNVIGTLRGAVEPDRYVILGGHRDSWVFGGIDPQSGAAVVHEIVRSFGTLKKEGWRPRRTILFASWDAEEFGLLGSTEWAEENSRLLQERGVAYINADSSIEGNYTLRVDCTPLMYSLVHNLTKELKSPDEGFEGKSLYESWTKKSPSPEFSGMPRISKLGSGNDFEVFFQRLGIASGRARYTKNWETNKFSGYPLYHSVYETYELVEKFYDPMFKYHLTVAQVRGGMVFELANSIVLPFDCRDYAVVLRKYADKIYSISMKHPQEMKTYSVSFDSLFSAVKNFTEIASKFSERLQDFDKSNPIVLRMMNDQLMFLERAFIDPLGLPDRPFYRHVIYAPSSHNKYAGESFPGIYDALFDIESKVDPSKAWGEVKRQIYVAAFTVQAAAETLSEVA
# Procedure, shortened: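 KD, expressed as pKD, came from 1:1 Langmuir fits of reference- and buffer-blank-subtracted SPR data. The runs were single-cycle kinetics at 25° C in HBST/0.1% DMSO over human PSMA-Fc, captured to ~1000 RU on a peptide-coated CM5 surface and regenerated with 10 mM glycine pH 1.5.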
# [3] = FACS binding, PSMA-expressing C4-2 cells, pIC50 category
Structure (SMILES),AUC ratio [T/K] (PC3-PIP tumor model),Tumor AUC (PC3-PIP tumor model) [% ID/g*h],"IC50 ([1]; pIC50 category of FACS binding, C4-2 cells) [nM]",Kd ([2]; pKD category for PSMA SPR activity assay) [nM],"IC50 ([1]; FACS binding, C4-2 cells, competition with 50 nM PSM-0183, category) [nM]","Kd ([2]; SPR, single cycle kinetic, category) [nM]","IC50 [1, 3] [nM]","Kd ([2]; PSMA SPR assay, pKD category) [nM]"
"C[C@@H](O)[C@H](NC(=O)[C@@H](NC(=O)[C@@H]1CSSC[C@H](NC(=O)[C@H](Cc2ccccc2)NC(=O)C(C)(C)NC(=O)[C@@H](NC(=O)CCC(=O)NCCCOCCOCCOCCCNC(=O)CN2CCN(CC(=O)O)CCN(CC(=O)O)CCN(CC(=O)O)CC2)[C@@H](C)O)C(=O)N[C@@H](CCCCN)C(=O)N[C@@H](CCCNC(N)=O)C(=O)NC(C)(C)C(=O)N[C@@H](CC(N)=O)C(=O)N1)C(C)(C)C)C(N)=O [PSM-0234, DOTA-Ttds-Thr-Aib-Phe-[Cys-Lys-Cit-Aib-Asn-Cys]-Tle-Thr-NH2] ({X3-Suc}-T[Aib]FCK[Cit][Aib]NC[Tle]T-NH2; disulfide 4-9)",0.64,62,,,200 to 1260,12.6 to 126,,
"C[C@@H](O)[C@H](NC(=O)[C@@H](NC(=O)[C@@H]1CSSC[C@H](NC(=O)[C@H](Cc2ccc(Cl)cc2)NC(=O)C(C)(C)NC(=O)c2ccc(CNC(=O)CN3CCN(CC(=O)O)CCN(CC(=O)O)CCN(CC(=O)O)CC3)cc2)C(=O)N[C@@H](CCCCN)C(=O)N[C@@H](CCCNC(=N)N)C(=O)NC(C)(C)C(=O)N[C@@H](CC(N)=O)C(=O)N1)C(C)(C)C)C(N)=O [PSM-0283, DOTA-Pamb-Aib-Pcf-[Cys-Lys-Arg-Aib-Asn-Cys]-Tle-Thr-NH2] ({DOTA-4Amb}-[Aib][Phe(4-Cl)]CKR[Aib]NC[Tle]T-NH2; disulfide 3-8)",1.6,200,,,,,< 200,< 12.6
"CC(=O)N[C@H](C(=O)NC(C)(C)C(=O)N[C@@H](Cc1ccc(Cl)cc1)C(=O)N[C@H]1CSSC[C@@H](C(=O)N[C@H](C(=O)NCCNC(=O)CN2CCN(CC(=O)O)CCN(CC(=O)O)CCN(CC(=O)O)CC2)C(C)(C)C)NC(=O)[C@H](CC(N)=O)NC(=O)C(C)(C)NC(=O)[C@H](CCCNC(=N)N)NC(=O)[C@H](CCCCN)NC1=O)[C@@H](C)O [PSM-0269, Ac-Thr-Aib-Pcf-[Cys-Lys-Arg-Aib-Asn-Cys]-Tle-en-DOTA] (Ac-T[Aib][Phe(4-Cl)]CKR[Aib]NC[Tle]-{Ethylenediamine-DOTA}; disulfide 4-9)",0.87,150,,,,,< 200,< 12.6

# The next lines start with the values.
AUC ratio [T/K] (PC3-PIP tumor model),Tumor AUC (PC3-PIP tumor model) [% ID/g*h],"IC50 ([1]; pIC50 category of FACS binding, C4-2 cells) [nM]",Kd ([2]; pKD category for PSMA SPR activity assay) [nM],"IC50 ([1]; FACS binding, C4-2 cells, competition with 50 nM PSM-0183, category) [nM]","Kd ([2]; SPR, single cycle kinetic, category) [nM]","IC50 [1, 3] [nM]","Kd ([2]; PSMA SPR assay, pKD category) [nM]",Structure (SMILES)
0.53,230,< 200,< 12.6,,,,,"CCCCCC(=O)N[C@H](C(=O)NC(C)(C)C(=O)N[C@@H](Cc1ccccc1)C(=O)N[C@H]1CSSC[C@@H](C(=O)N[C@H](C(=O)N[C@H](C(=O)N[C@@H](CC(=O)O)C(=O)NCCCOCCOCCOCCCNC(=O)CCC(=O)N[C@H](CCCCNC(=O)CN2CCN(CC(=O)O)CCN(CC(=O)O)CCN(CC(=O)O)CC2)C(N)=O)[C@@H](C)O)C(C)(C)C)NC(=O)[C@H](CC(N)=O)NC(=O)C(C)(C)NC(=O)[C@H](CCCNC(=N)N)NC(=O)[C@H](CCCCN)NC1=O)[C@@H](C)O [PSM-0425, Hex-Thr-Aib-Phe-[Cys-Lys-Arg-Aib-Asn-Cys]-Tle-Thr-Asp-Ttds-lys(DOTA)-NH2] (Hexanoyl-T[Aib]FCKR[Aib]NC[Tle]TD-{TtdsdLys(DOTA)NH2}; disulfide 4-9)"
0.85,110,,,,,< 200,< 12.6,"C[C@@H](O)[C@H](NC(=O)CC1CCN(C(=O)CN2CCN(CC(=O)O)CCN(CC(=O)O)CCN(CC(=O)O)CC2)CC1)C(=O)NC(C)(C)C(=O)N[C@@H](Cc1ccccc1)C(=O)N[C@H]1CSSC[C@@H](C(=O)N[C@H](C(N)=O)C(C)(C)C)NC(=O)[C@H](CC(N)=O)NC(=O)C(C)(C)NC(=O)[C@H](CCCNC(=N)N)NC(=O)[C@H](CCCCN)NC1=O [PSM-0361, DOTA-Cmp-Thr-Aib-Phe-[Cys-Lys-Arg-Aib-Asn-Cys]-Tle-NH2] ({DOTA}-[X1]T[Aib]FCKR[Aib]NC[Tle]-NH2; disulfide 5-10)"
